Test results from patent US10195156B2, “Compounds and compositions for intracellular delivery of agents” (ModernaTX, Inc., priority 2015, dated 2019).

What was measured:
[1] = Particle size and polydispersity index of nanoparticle compositions (Zetasizer Nano ZS); assay type: physicochemical; details: for particle size, rank within the named table (in words): comparison amongst compositions
How it was run: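 Zetasizer Nano ZS; samples in 1×PBS; read-out: particle size plus polydispersity index.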

[2] = test system: modified luciferase expression; experiment: Expression of Luc in different organs (liver, lung, spleen, femur) 6 hours after intravenous administration; assay type: in vivo; details: i.v., 0.5 mpk
Procedure: The efficacy of the nanoparticle compositions presented in Tables 1, 1a, 17-1, 19-1, 20-1 and 21-1 was further evaluated by measuring the expression of modified luciferase in the liver, lung, spleen, and femur upon administration of a given composition. Formulations were administered intravenously to mice (n=3) at a dosage of 0.5 mpk and bioluminescence measured after 6 hours. The standard MC3 formulation and a PBS control were also tested.

[3] = pKa of nanoparticle compositions; assay type: physicochemical
[4] = Encapsulation efficiency of RNA (QUANT-IT RIBOGREEN RNA assay); assay type: physicochemical; details: for encapsulation efficiency, rank within the named table (in words): comparison amongst compositions
How it was run: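 RiboGreen fluorescence (ex ~480, em ~520 nm) measured after 15 min at 37 °C on samples at ~5 μg/mL in TE, pH 7.5, ± 2% Triton X-100 solution. After blank subtraction, free RNA is given as intact-sample signal divided by disrupted-sample signal.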

IL-6 = experiment: Cytokine production induced by sample formulations: IL-6; assay type: in vivo; details: mice, i.v., 0.5 mpk, 6 hours; for IL-6: in pg/mL (unit assumed)
How it was run: (§1)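 Cytokine levels were quantified at 6 hours in mice given the nanoparticle compositions i.v. at 0.5 mpk. MC3 standard formulation and PBS served as comparators.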

[5] = test system: luciferase (Luc) mRNA expression; experiment: Expression of Luc induced by sample formulations, whole-body bioluminescence after intravenous administration; assay type: in vivo; details: mice, i.v., 0.5 mg/kg
How it was run: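 Read-out is whole-body bioluminescence at 3, 6 and 24 h after a single intravenous dose of 0.5 mg/kg Luc mRNA in nanoparticle formulations. Groups of n=6 mice; PBS and standard MC3 formulation as references.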

IP-10 = experiment: Cytokine production induced by sample formulations: IP-10; assay type: in vivo; details: mice, i.v., 0.5 mpk, 6 hours; for IP-10: in pg/mL (unit assumed)
How it was run: as §1

[6] = Table 1, rows without footnote mark
[7] = Table 1, rows without footnote mark (lipid:DOPE:cholesterol:PEG-DMG 40:20:38.5:1.5, Luc mRNA; MC3 standard formulation)
[8] = Table 20-1, rows without footnote mark
[9] = Table 1, * formulated with lipid:DSPC:Chol:PEG-DMG 50:10:38.5:1.5
[10] = Table 1, * lipid:DSPC:Chol:PEG-DMG 50:10:38.5:1.5

PDI [1, 6] | Size (nm) [1, 7] | pKa [3, 6] | EE (%) [4, 6] | IL-6 (IL-6; Table 4) | IP-10 (IP-10; Table 4) | PDI ([1]; Table 19-1) | Size (nm) ([1]; Table 19-1) | pKa ([3]; Table 19-1) | EE (%) ([4]; Table 19-1) | IP-10 induction, rank or comparison with IL-6 (in words) (IP-10) | SMILES | Total Flux Liver ([2]; Table 3, mice) | Total Flux Lung ([2]; Table 3, mice) | Total Flux Spleen ([2]; Table 3, mice) | Total Flux 3 hours ([5]; Table 2, 3 hours) | Total Flux 6 hours ([5]; Table 2) | Total Flux 24 hours ([5]; Table 2, 24 hours) | Total Flux Liver ([2]; Table 19-3, mice) | Total Flux Lung ([2]; Table 19-3, mice) | Total Flux Spleen ([2]; Table 19-3, mice) | also measured
0.110 | 95.0 nm | 6.09 | 74.3% | 300 | 4235 | – | – | – | – | – | CCCCCCCCCCCCCCN(CCCCCCCCCCCCCC)CCN(CCCCCCCCCCCCCC)CCN1CCN(CCN(CCCCCCCCC)CCCCCCCCC)CC1 [Compound 30, N^1-(2-(4-(2-(Dinonylamino)ethyl)piperazin-1-yl)ethyl)-N^1,N^2,N^2-tritetradecylethane-1,2-diamine] | 2.42E+09 | 1.61E+07 | 7.18E+06 | 2.87E+10 | 1.59E+10 | 1.95E+09 | – | – | – | Total Flux Femur ([2]; Table 3, mice): 2.22E+06; total flux after 3 hours, rank within the named table (in words) ([5]; 3 hours): highest flux after 3 hours
– | – | – | – | – | – | 0.071 | 98.0 nm | 6.76 | 83.4% | lowest IP-10 expression | CCCCCCCCCN(CCCCCCCCC)CCN1CCNCC1 [Compound 19-1, N-Nonyl-N-(2-(piperazin-1-yl)ethyl)nonan-1-amine] | – | – | – | – | – | – | 8.53E+05 | 1.06E+04 | 1.58E+04 | IL-6 (IL-6; Table 19-4): 144.4; Total Flux 3 hours ([5]; Table 19-2, 3 hours): 6.77E+05; Total Flux 6 hours ([5]; Table 19-2): 1.85E+06; Total Flux 24 hours ([5]; Table 19-2, 24 hours): 2.75E+05; IP-10 (IP-10; Table 19-4): 51.1
– | – | – | – | – | – | 0.071 | 111.4 nm | 7.09 | 95.2% | highest IP-10 expression | CCCCCCCCCCCCN(CCCCCCCCCCCC)CCN1CCN(C)CC1 [Compound 19-4, N-Dodecyl-N-(2-(4-methylpiperazin-1-yl)ethyl)dodecan-1-amine] | – | – | – | – | – | – | 1.46E+05 | 4.49E+04 | 3.69E+04 | IL-6 (IL-6; Table 19-4): 129.2; Total Flux 3 hours ([5]; Table 19-2, 3 hours): 6.61E+05; Total Flux 6 hours ([5]; Table 19-2): 4.75E+05; Total Flux 24 hours ([5]; Table 19-2, 24 hours): 3.44E+05; IP-10 (IP-10; Table 19-4): 430.9
– | – | – | – | – | – | – | – | – | – | highest | CCCCC/C=C\C/C=C\CCCCCCCCN(CCO)CCN(CCCCCCCC/C=C\C/C=C\CCCCC)CCCCCCCC/C=C\C/C=C\CCCCC [Compound 20-14, 2-((2-(Di((9Z,12Z)-octadeca-9,12-dien-1-yl)amino)ethyl)((9Z,12Z)-octadeca-9,12-dien-1-yl)amino)ethan-1-ol] | – | – | – | – | – | – | – | – | – | PDI [1, 8]: 0.215; Size (nm) [1, 8]: 124.0 nm; Total Flux Liver ([2]; Table 20-3, mice): 5.22E+07; Total Flux Lung ([2]; Table 20-3, mice): 1.08E+05; Total Flux Spleen ([2]; Table 20-3, mice): 7.03E+05; pKa [3, 8]: 5.89; EE (%) [4, 8]: 94.5%; IL-6 (IL-6; Table 20-4, formula (20-I)): 311.1; Total Flux 3 hours ([5]; Table 20-2, 3 hours): 1.76E+09; Total Flux 6 hours ([5]; Table 20-2): 4.07E+08; Total Flux 24 hours ([5]; Table 20-2, 24 hours): 8.10E+07; IP-10 (IP-10; Table 20-4, formula (20-I)): 8436.6
– | – | – | – | 28 | 159 | – | – | – | – | – | CCCCC/C=C\C/C=C\CCCCCCCCN(CCCCCCCC/C=C\C/C=C\CCCCC)CCN(CCCCCCCC/C=C\C/C=C\CCCCC)CCN1CCN(CCN(CCCCCCCCCCCC)CCCCCCCCCCCC)CC1 [Compound 34, N^1-(2-(4-(2-(Didodecylamino)ethyl)piperazin-1-yl)ethyl)-N^1,N^2,N^2-tri((9Z,12Z)-octadeca-9,12-dien-1-yl)ethane-1,2-diamine] | 2.79E+06 | 5.63E+04 | 1.22E+06 | 7.77E+06 | 1.88E+07 | 2.19E+06 | – | – | – | Size (nm) [1, 9]: 66.0 nm; PDI [1, 10]: 0.077; particle size, rank within the named table (in words) [1]: smallest particles; pKa [3, 10]: 5.74; EE (%) [4, 10]: 98.1%
– | – | – | – | 41 | 118 | – | – | – | – | lowest IP-10 expression | CCCCCCCCCN(CCCCCCCCC)CCN(CCCCCCCCC)CCN1CCNCC1 [Compound 36, N^1,N^1,N^2-Trinonyl-N^2-(2-(piperazin-1-yl)ethyl)ethane-1,2-diamine] | 5.85E+04 | 2.74E+04 | 1.24E+05 | 6.90E+05 | 3.93E+05 | 1.68E+05 | – | – | – | Size (nm) [1, 9]: 100.8 nm; PDI [1, 10]: 0.110; pKa [3, 10]: 7.81; EE (%) [4, 10]: 100.2%; encapsulation efficiency, rank within the named table (in words) [4]: highest; total flux after 24 hours, rank within the named table (in words) ([5]; 24 hours): lowest flux after 24 hours
– | – | – | – | – | – | 0.076 | 47.9 nm | 7.24 | 99.7% | – | CCCCC/C=C\C/C=C\CCCCCCCCN(CCCCCCCC/C=C\C/C=C\CCCCC)CCN1CCNCC1 [Compound 19-3, (9Z,12Z)—N-((9Z,12Z)—Octadeca-9,12-dien-1-yl)-N-(2-(piperazin-1-yl)ethyl)octadeca-9,12-dien-1-amine] | – | – | – | – | – | – | 2.65E+05 | 3.00E+04 | 2.55E+05 | particle size, rank within the named table (in words) [1]: smallest particles; encapsulation efficiency, rank within the named table (in words) [4]: highest encapsulation efficiency; IL-6 (IL-6; Table 19-4): 5.4; IL-6 induction, rank within the named table (in words) (IL-6): lowest IL-6 expression; Total Flux 3 hours ([5]; Table 19-2, 3 hours): 1.69E+06; Total Flux 6 hours ([5]; Table 19-2): 1.21E+06; Total Flux 24 hours ([5]; Table 19-2, 24 hours): 3.39E+05; IP-10 (IP-10; Table 19-4): 177.5
0.211 | 86.4 nm | 6.14 | 97.9% | 42 | 2564 | – | – | – | – | – | CCCCC/C=C\C/C=C\CCCCCCCCN(CCCCCCCCCCCC)CCN1CCN(CCN(CCCCCCCCCCCC)CCN(CCCCCCCCCCCC)CCCCCCCCCCCC)CC1 [Compound 27, N^1,N^1,N^2-Tridodecyl-N^2-(2-(4-(2-(dodecyl((9Z,12Z)-octadeca-9,12-dien-1-yl)amino)ethyl)piperazin-1-yl)ethyl)ethane-1,2-diamine] | 7.84E+08 | 3.56E+06 | 3.34E+06 | 4.56E+09 | 4.70E+09 | 1.36E+08 | – | – | – | –
0.080 | 97.7 nm | 6.30 | 64.2% | 301 | 7266 | – | – | – | – | highest expression | CCCCCCCCCCCCCCN(CCCCCCCCCCCCCC)CCN(CCCCCCCCCCCCCC)CCN1CCN(CCN(CCCCCCCCCCCC)CCCCCC(=O)OCCCCC)CC1 [Compound 13, Pentyl 6-((2-(4-(2-((2-(ditetradecylamino)ethyl)(tetradecyl)amino)ethyl)piperazin-1-yl)ethyl)(dodecyl)amino)hexanoate] | 6.10E+08 | 2.89E+06 | 3.63E+07 | 3.59E+09 | 3.80E+09 | 3.11E+08 | – | – | – | Total Flux Femur ([2]; Table 3, mice): 1.99E+06; IL-6 induction, rank within the named table (in words) (IL-6): highest expression
– | – | – | – | – | – | – | – | – | – | – | CCCCC/C=C\CCCCCN(CCO)CCN(CCCCCCCCCCCC)CCCCCCCCCCCC [Compound 20-23, (Z)-2-((2-(Didodecylamino)ethyl)(dodec-6-en-1-yl)amino)ethan-1-ol] | – | – | – | – | – | – | – | – | – | PDI [1, 8]: 0.080; Size (nm) [1, 8]: 88.1 nm; Total Flux Femur ([2]; Table 20-3, mice): 5.10E+05; Total Flux Liver ([2]; Table 20-3, mice): 3.06E+08; Total Flux Lung ([2]; Table 20-3, mice): 1.28E+06; Total Flux Spleen ([2]; Table 20-3, mice): 4.19E+06; pKa [3, 8]: 6.56; EE (%) [4, 8]: 95.3%; IL-6 (IL-6; Table 20-4, formula (20-I)): 236.4; Total Flux 3 hours ([5]; Table 20-2, 3 hours): 1.91E+09; Total Flux 6 hours ([5]; Table 20-2): 1.42E+09; Total Flux 24 hours ([5]; Table 20-2, 24 hours): 1.13E+08; IP-10 (IP-10; Table 20-4, formula (20-I)): 457.8
